Measurements reported in patent US5472949A, “N^4 -(substituted-oxycarbonyl)-5'-deoxy-5-fluorocytidine compounds, compositions and methods of using same” (Hoffmann-La Roche Inc., priority 1992, dated 1995).

Legend:
[1] = Toxicity (LD50), oral administration daily for 21 days in mice; settings: mouse, in vivo
Description: The toxicity (LD50) of the representative compounds (Example 13,14, and 17) of the present invention was examined by oral administration daily for 21 days in mice. The representative LD50 values obtained from the experiments were more than 500 mg/kg/day.

[2] = test system: monkey liver acylamidase; experiment: Susceptibility to monkey liver acylamidase (crude liver extract, 5'-DFCR formed by HPLC); type: in vitro ADME; settings: tetrahydrouridine 0.4 mM, 37° C., 60 min
Description: (§1) The N^4 -(substituted-oxycarbonyl)-5'-DFCRs of the invention were incubated with crude extracts of monkey and human liver in the presence of an inhibitor of cytidine deaminase, tetrahydrouridine (0.4 mM) at 37° C. for 60 min. Thereafter, the product 5'-DFCR was separated by HPLC and the enzyme susceptibility was calculated from the amount of the product.

[3] = test system: CXF280 Human Colon Carcinoma; experiment: Antitumor testing against human colon cancer xenograft CXF280; type: in vivo, BALB/c nu/nu mice; parameters: key to Fecal observation: N: normal feces; L: loose passage
Description: CXF280 tumor (about 2×2 mm piece) was implanted subcutaneously into BALB/c nu/nu mice (21-22 g) on day 0. When tumor volume became 100 mm^3 on day around 14, the compounds of the invention were orally administered daily for 3 weeks. At one day after the last treatment, tumor volume was calculated.
The percent inhibition of tumor growth given in Table 3 above was calculated from the formula:
% Inhibition ={1-(T-V0)/(C-V0)}×100
V0 =volume of tumor before treatment was started, T=volume of the tumors from the treated group, C=volume of the tumor from the control group.

[4] = test system: human liver acylamidase; experiment: Susceptibility to human liver acylamidase (crude liver extract, 5'-DFCR formed by HPLC); type: in vitro ADME; settings: tetrahydrouridine 0.4 mM, 37° C., 60 min
Description: as §1

[5] = test system: colon 26 carcinoma; experiment: Antitumor and anticachexia activity against mouse colon 26 carcinoma; type: in vivo, Mice (CDF1); settings: for Serum IAP: IAP = immunosuppressive acidic protein
Description: Antitumor activity of a representative compound (Example 13), of the present invention, was measured as follows. Mice (CDF1) were subcutaneously inoculated with colon 26 carcinoma (10^6 cells) on day 0. The compound was administered daily for 7 times from day 21 when the animals became cachectic. One day after the last treatment, tumor weight gain, carcass weight gain, adipose tissue weight, concentrations of glucose and the acute phase reactant IAP (immunosuppressive acidic protein) in the serum were measured.

[6] = Pharmacokinetic profiles in monkeys (plasma 5'-DFUR after oral administration); type: in vivo; settings: cynomolgous monkeys, metabolite 5'-DFUR in plasma
Description: The compounds of formula (I) were orally administered into groups of 2 to 5 cynomolgous monkeys (3-4 kg). At various times after the administration, plasma was taken for determination of blood concentrations of intact molecules and their active metabolite 5'-DFUR. Metabolites in the plasma were separated by HPLC and their concentrations were calculated.

CCCCCCOC(=O)Nc1nc(=O)n([C@@H]2O[C@H](C)[C@@H](O)[C@H]2O)cc1F [Example 13, 5'-deoxy-5-fluoro-N^4-(hexyloxycarbonyl)cytidine]
LD50 at 504 h [1]: > 500 mg/kg
Acylamidase activity, Monkey Liver [2]: 47 nmol/mg protein/hr
Fecal observation ([3]; Exp. 1, 1.5 mmol/kg/day x 21, oral): N
inhibition in vivo at 0.13 mmol/kg/day ([3]; Mus musculus, po, Exp. 1, 0.13 mmol/kg/day x 21, oral, read-out: % Growth inhibition): 59%
inhibition in vivo at 0.3 mmol/kg/day ([3]; Mus musculus, po, Exp. 1, 0.3 mmol/kg/day x 21, oral, read-out: % Growth inhibition): 66%
inhibition in vivo at 0.67 mmol/kg/day ([3]; Mus musculus, po, Exp. 1, 0.67 mmol/kg/day x 21, oral, read-out: % Growth inhibition): 79%
inhibition in vivo at 1 mmol/kg/day ([3]; Mus musculus, po, Exp. 1, 1.0 mmol/kg/day x 21, oral, read-out: % Growth inhibition): 91%
inhibition in vivo at 1.5 mmol/kg/day ([3]; Mus musculus, po, Exp. 1, 1.5 mmol/kg/day x 21, oral, read-out: % Growth inhibition): 94%
Acylamidase activity, Human Liver [4]: 220 nmol/mg protein/hr
Adipose tissue wt. ([5]; 0.125 mmol/kg x 7, from day 21): 22 mg
Carcass wt. change ([5]; 0.125 mmol/kg x 7, from day 21): 1.6 g
Serum glucose ([5]; 0.125 mmol/kg x 7, from day 21): 118 mg/dL
Tumor wt. change ([5]; 0.125 mmol/kg x 7, from day 21): 1.24 g
Serum IAP ([5]; 0.125 mmol/kg x 7, from day 21): 1195 µg/mL
Adipose tissue wt. ([5]; 0.25 mmol/kg x 7, from day 21): 42 mg
Carcass wt. change ([5]; 0.25 mmol/kg x 7, from day 21): 3.4 g
Serum glucose ([5]; 0.25 mmol/kg x 7, from day 21): 120 mg/dL
Tumor wt. change ([5]; 0.25 mmol/kg x 7, from day 21): 0.91 g
Serum IAP ([5]; 0.25 mmol/kg x 7, from day 21): 1020 µg/mL
Adipose tissue wt. ([5]; 0.5 mmol/kg x 7, from day 21): 63 mg
Carcass wt. change ([5]; 0.5 mmol/kg x 7, from day 21): 4.2 g
Serum glucose ([5]; 0.5 mmol/kg x 7, from day 21): 147 mg/dL
Tumor wt. change ([5]; 0.5 mmol/kg x 7, from day 21): 0.79 g
Serum IAP ([5]; 0.5 mmol/kg x 7, from day 21): 805 µg/mL
Adipose tissue wt. ([5]; 1 mmol/kg x 7, from day 21): 85 mg
Carcass wt. change ([5]; 1 mmol/kg x 7, from day 21): 5.6 g
Serum glucose ([5]; 1 mmol/kg x 7, from day 21): 127 mg/dL
Tumor wt. change ([5]; 1 mmol/kg x 7, from day 21): 0.006 g
Serum IAP ([5]; 1 mmol/kg x 7, from day 21): 795 µg/mL
cachexia (in words) ([5]; daily for 7 times from day 21): improved cachexia
tumor growth (in words) ([5]; daily for 7 times from day 21): suppressed tumor growth
Plasma 5'-DFUR AUC [6]: 1960 ng·h/mL
